ChEMBL document CHEMBL1146991, “The synthesis of highly potent, selective, and water-soluble agonists at the human adenosine A3 receptor” (Bioorg Med Chem Lett, 2006)
Converted amounts (≈) assume the structure as drawn.

Experiments:
Adenosine receptor A3 [1] = biological target: T1, Adenosine receptor A3 (Homo sapiens, UniProt P0DMS8); experiment: Binding affinity to human adenosine A3 receptor
T1 sequence (P0DMS8 whole entry): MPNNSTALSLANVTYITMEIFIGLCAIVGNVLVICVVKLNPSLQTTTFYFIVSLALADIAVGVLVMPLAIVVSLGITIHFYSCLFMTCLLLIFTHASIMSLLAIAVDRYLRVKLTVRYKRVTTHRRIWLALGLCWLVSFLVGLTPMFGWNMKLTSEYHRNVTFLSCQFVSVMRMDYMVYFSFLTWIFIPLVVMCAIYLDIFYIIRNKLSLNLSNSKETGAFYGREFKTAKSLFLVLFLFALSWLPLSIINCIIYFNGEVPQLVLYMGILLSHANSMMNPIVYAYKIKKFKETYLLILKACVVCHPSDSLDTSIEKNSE

[2] = biological target: Adenosine receptors; A1 & A3 (Homo sapiens) (UniProt P30542+P0DMS8); experiment: Selectivity for human adenosine A3 receptor over human adenosine A1 receptor; type: protein assay
Sequence of Adenosine receptors; A1 & A3 (Homo sapiens) (P30542 whole entry, looked up, one chain of several): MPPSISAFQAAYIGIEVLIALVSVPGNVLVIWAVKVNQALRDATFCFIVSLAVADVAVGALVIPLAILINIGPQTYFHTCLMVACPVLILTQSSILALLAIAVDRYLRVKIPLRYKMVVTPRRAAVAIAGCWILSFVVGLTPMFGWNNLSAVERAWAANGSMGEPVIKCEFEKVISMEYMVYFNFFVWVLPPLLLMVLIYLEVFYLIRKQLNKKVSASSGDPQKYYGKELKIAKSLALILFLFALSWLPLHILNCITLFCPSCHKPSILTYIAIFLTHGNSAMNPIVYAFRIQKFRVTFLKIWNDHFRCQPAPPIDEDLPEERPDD

[3] = biological target: Adenosine receptor A2a (Homo sapiens) (UniProt P29274); experiment: Increase of cAMP production in HEK293 cell expressing human adenosine A2A receptor at 3 uM; type: functional, cell-based
Sequence of Adenosine receptor A2a (Homo sapiens) (P29274 whole entry): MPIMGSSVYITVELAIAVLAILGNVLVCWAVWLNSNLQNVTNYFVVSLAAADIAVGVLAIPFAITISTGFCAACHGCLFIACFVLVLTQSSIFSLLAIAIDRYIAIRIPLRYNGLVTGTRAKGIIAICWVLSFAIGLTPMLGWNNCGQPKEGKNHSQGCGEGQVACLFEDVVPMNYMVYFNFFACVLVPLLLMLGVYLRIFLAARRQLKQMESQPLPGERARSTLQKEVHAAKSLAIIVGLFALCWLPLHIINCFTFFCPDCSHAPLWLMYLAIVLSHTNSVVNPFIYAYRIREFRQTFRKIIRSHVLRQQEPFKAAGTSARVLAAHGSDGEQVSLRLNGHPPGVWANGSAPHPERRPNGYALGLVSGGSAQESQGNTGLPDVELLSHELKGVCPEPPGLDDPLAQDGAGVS

[4] = biological target: T2, Adenosine receptor A2b (Homo sapiens) (UniProt P29275); experiment: Increase of cAMP production in HEK293 cell expressing human adenosine A2B receptor at 3 uM; type: functional, cell-based
T2 sequence (whole entry): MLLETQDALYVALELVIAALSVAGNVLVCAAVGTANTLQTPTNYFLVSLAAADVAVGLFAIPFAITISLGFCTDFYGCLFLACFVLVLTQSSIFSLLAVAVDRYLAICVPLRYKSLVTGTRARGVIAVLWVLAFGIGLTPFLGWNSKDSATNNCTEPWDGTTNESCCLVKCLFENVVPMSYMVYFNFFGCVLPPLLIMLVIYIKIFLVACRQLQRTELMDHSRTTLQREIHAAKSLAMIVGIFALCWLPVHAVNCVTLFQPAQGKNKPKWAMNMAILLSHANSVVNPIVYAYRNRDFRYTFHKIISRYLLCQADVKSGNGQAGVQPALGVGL

Adenosine receptor A3 [5] = biological target: T1, Adenosine receptor A3; experiment: Inhibition of isoproterenol-induced increase of cAMP in HEK293 cell expressing human adenosine A3 receptor; type: functional, cell-based
[6] = Solubility in citrate buffer at pH 4; type: physicochemical

Row | Ki (Adenosine receptor A3 [1]) [nM] | Selectivity ratio [2] | SMILES | further results
1 | > 3000 |  | CNC(=O)[C@H]1O[C@@H](n2cnc3c(NC)ncnc32)[C@H](O)[C@@H]1NC(C)=O | 
2 | 6.8 | 526 | CNC(=O)[C@H]1O[C@@H](n2cnc3c(NCc4cc(Cl)ccc4OCC(N)=O)ncnc32)[C@H](O)[C@@H]1N | 
3 | > 3000 |  | CCNC(=O)N[C@H]1[C@@H](O)[C@H](n2cnc3c(NC)ncnc32)O[C@@H]1C(=O)NC | 
4 | 9.1 | 456 | CNC(=O)[C@H]1O[C@@H](n2cnc3c(NCc4cc(Cl)ccc4OCC(=O)N4CCC(N(C)C)CC4)ncnc32)[C@H](O)[C@@H]1N | 
5 | 20 | 700 | CNC(=O)[C@H]1O[C@@H](n2cnc3c(NCc4cc(Cl)ccc4OCC(=O)N4CCOCC4)ncnc32)[C@H](O)[C@@H]1N | 
6 | > 3000 |  | CNC(=O)[C@H]1O[C@@H](n2cnc3c(NC)ncnc32)[C@H](O)[C@@H]1NS(C)(=O)=O | 
7 | 15 | 317 | CNC(=O)[C@H]1O[C@@H](n2cnc3c(NCc4cc(Cl)ccc4OC)ncnc32)[C@H](O)[C@@H]1N | 
8 | 3.9 | 45 | CNC(=O)[C@H]1O[C@@H](n2cnc3c(NCc4cc(OC)ccc4OC)ncnc32)[C@H](O)[C@@H]1O | 
9 | 130 | 222 | CNC(=O)[C@H]1O[C@@H](n2cnc3c(NCc4cc(Cl)ccc4OCC(=O)O)ncnc32)[C@H](O)[C@@H]1N | 
10 |  | 194 | CNC(=O)[C@H]1O[C@@H](n2cnc3c(NC)ncnc32)[C@H](O)[C@@H]1N | 
11 | 2.5 | 9.4 | CNC(=O)[C@H]1O[C@@H](n2cnc3c(NCc4cc(Cl)cc(Cl)c4)ncnc32)[C@H](O)[C@@H]1O | 
12 | 25 | 148 | CNC(=O)[C@H]1O[C@@H](n2cnc3c(NCc4cc(Cl)cc(Cl)c4)ncnc32)[C@H](O)[C@@H]1N | 
13 | 160 | 294 | CNC(=O)[C@H]1O[C@@H](n2cnc3c(NCc4cc(OC)ccc4OC)ncnc32)[C@H](O)[C@@H]1N | 
14 |  | 13 | CNC(=O)[C@H]1O[C@@H](n2cnc3c(NC)ncnc32)[C@H](O)[C@@H]1O | 
15 | 59 | 6 | CNC(=O)[C@@H]1C[C@@H](O)[C@H](n2cnc3c(NC)ncnc32)O1 | 
16 | 87 | 12.6 | CNC(=O)[C@H]1O[C@@H](n2cnc3c(NC)ncnc32)C[C@@H]1O | 
17 | 16 | 691 | CNC(=O)[C@H]1O[C@@H](n2cnc3c(NCc4cc(Cl)ccc4OCc4ccccc4)ncnc32)[C@H](O)[C@@H]1N | 
18 | 9.4 | 445 | CNC(=O)[C@H]1O[C@@H](n2cnc3c(NCc4cc(Cl)ccc4OCC(=O)N4CCNCC4)ncnc32)[C@H](O)[C@@H]1N | Activity [3]: 16%; Activity [4]: 1%; EC50 (Adenosine receptor A3 [5]): 8.1 nM; solubility [6]: 50 mg/mL (≈ 89.3 mM)
19 | 18 | 720 | CNC(=O)[C@H]1O[C@@H](n2cnc3c(NCc4cc(Cl)ccc4OCC(=O)N4CCCCC4)ncnc32)[C@H](O)[C@@H]1N | 
